Source: ChEMBL document CHEMBL4028831, “Improvement of hERG-ROMK index of spirocyclic ROMK inhibitors through scaffold optimization and incorporation of novel pharmacophores” (Bioorg Med Chem Lett, 2017)
The source made the active and inactive calls. The rule behind the calls is not given here.

Columns and labels:
[1] = Unbound fraction in guinea pig plasma at 3 mg/kg administered as iv infusion; format: ADME, organism-based, Cavia porcellus; conditions: in vivo
[2] = target: Sodium channel protein type 5 subunit alpha (Homo sapiens, UniProt Q14524); assay: Inhibition of Nav1.5 (unknown origin)
[3] = Clearance in Wistar Han rat at 1 mg/kg, iv or 2 mg/kg, po; conditions: in vivo
[4] = Volume of distribution at steady state in Wistar Han rat at 1 mg/kg, iv or 2 mg/kg, po; conditions: in vivo
[5] = Half life in Wistar Han rat at 1 mg/kg, iv or 2 mg/kg, po; conditions: in vivo
[6] = target: T1, ATP-sensitive inward rectifier potassium channel 1 (Homo sapiens, UniProt P48048); assay: Inhibition of human ROMK expressed in CHO cells at -70 mV holding potential after 6 mins by whole cell patch clamp Qpatch method; format: cell-based
T1 sequence (P48048 whole entry): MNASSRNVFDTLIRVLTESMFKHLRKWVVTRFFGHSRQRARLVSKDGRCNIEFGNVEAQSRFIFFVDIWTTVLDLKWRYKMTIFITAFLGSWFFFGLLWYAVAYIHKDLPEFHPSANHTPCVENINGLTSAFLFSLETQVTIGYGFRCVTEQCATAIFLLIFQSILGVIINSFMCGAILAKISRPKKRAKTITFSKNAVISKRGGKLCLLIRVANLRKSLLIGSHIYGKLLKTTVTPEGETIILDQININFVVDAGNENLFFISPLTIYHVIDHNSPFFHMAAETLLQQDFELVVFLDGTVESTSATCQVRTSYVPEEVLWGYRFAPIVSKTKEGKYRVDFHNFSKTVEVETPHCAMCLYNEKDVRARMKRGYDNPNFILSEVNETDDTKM

[7] = target: T2, Cytochrome P450 3A4 (Homo sapiens, UniProt P08684); assay: Inhibition of CYP3A4 (unknown origin); format: ADME
[8] = target: T3, Cytochrome P450 2C8 (Homo sapiens, UniProt P10632); assay: Inhibition of CYP2C8 (unknown origin); format: ADME
T3 sequence (P10632 whole entry): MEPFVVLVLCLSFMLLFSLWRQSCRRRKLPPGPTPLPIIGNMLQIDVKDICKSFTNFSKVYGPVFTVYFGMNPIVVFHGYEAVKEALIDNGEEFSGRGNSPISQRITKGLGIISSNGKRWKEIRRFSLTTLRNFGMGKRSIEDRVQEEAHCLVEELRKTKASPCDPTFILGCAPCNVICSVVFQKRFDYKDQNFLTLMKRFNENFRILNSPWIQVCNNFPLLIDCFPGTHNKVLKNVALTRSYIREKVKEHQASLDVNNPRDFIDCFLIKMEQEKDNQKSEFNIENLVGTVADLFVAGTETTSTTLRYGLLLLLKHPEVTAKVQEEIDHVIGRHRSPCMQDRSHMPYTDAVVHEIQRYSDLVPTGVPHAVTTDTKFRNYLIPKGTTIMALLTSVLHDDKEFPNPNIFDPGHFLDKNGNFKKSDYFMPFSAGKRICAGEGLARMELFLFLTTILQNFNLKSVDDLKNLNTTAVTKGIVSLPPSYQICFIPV

[9] = target: T4, Nuclear receptor subfamily 1 group I member 2 (Homo sapiens, UniProt O75469); assay: Activity at PXR (unknown origin) assessed as CYP induction
T4 sequence (O75469 whole entry): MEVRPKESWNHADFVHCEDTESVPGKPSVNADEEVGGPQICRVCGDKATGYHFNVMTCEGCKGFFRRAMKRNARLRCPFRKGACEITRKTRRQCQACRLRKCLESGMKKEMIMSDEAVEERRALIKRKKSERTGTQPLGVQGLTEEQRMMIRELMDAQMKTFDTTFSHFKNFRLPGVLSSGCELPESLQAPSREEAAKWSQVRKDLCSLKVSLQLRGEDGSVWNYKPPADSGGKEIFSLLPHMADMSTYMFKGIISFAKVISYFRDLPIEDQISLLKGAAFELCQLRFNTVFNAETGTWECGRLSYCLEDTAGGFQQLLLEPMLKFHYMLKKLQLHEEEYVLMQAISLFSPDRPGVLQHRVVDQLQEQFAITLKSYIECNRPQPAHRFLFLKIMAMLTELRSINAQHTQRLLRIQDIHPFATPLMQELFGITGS

[10] = target: Sodium-dependent serotonin transporter (Homo sapiens, UniProt P31645); assay: Inhibition of human SERT
[11] = Fraction unbound in human plasma; format: ADME, cell-free
[12] = target: T5, ATP-sensitive inward rectifier potassium channel 1 (Rattus norvegicus, UniProt P35560); assay: Inhibition of rat ROMK expressed in HEK293 cells after 30 mins by FLIPR based thallium flux assay; format: cell-based
T5 sequence (P35560 whole entry): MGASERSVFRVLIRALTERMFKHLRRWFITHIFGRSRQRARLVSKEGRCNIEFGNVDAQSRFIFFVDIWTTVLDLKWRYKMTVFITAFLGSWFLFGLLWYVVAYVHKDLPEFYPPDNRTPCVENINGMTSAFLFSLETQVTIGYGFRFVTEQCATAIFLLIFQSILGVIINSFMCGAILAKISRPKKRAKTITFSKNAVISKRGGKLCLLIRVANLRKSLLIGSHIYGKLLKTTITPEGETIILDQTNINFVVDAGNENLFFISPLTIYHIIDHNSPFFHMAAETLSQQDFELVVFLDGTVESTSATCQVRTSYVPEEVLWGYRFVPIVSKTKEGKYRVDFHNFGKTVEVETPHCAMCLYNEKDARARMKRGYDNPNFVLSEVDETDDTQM

[13] = tested on: Cavia porcellus; assay: Cardiotoxicity in anesthetized cardiovascular guinea pig model assessed as prolongation of QTc interval at 3 mg/kg administered as iv infusion relative to control; format: toxicity, organism-based; conditions: in vivo
[14] = tested on: Cavia porcellus; assay: Cardiotoxicity in anesthetized cardiovascular guinea pig model assessed as prolongation of QTc interval at 7 mg/kg administered as iv infusion relative to control; format: toxicity, organism-based; conditions: in vivo
[15] = tested on: Cavia porcellus; assay: Cardiotoxicity in anesthetized cardiovascular guinea pig model assessed as prolongation of QTc interval administered as iv infusion; format: toxicity, organism-based; conditions: in vivo
[16] = Unbound fraction in guinea pig plasma at 7 mg/kg administered as iv infusion; format: ADME, organism-based, Cavia porcellus; conditions: in vivo
[17] = species on record: Homo sapiens; assay: Unbound Cmax in human; format: ADME
[18] = tested on: Rattus norvegicus; assay: Antihypertensive activity in rat spontaneous hypertensive model assessed as induction of kaliuresis at 3 mg/kg, po qd measured after 3 days; format: functional, organism-based
[19] = tested on: Rattus norvegicus; assay: Antihypertensive activity in rat spontaneous hypertensive model assessed as induction of natriuresis at 3 mg/kg, po qd measured after 3 days; format: functional, organism-based
[20] = Volume of distribution at steady state in Beagle dog at 1 mg/kg, iv; format: ADME, organism-based, Canis lupus familiaris; conditions: in vivo, read-out: Vdss
[21] = target: T2, Cytochrome P450 3A4; assay: Time dependent inhibition of CYP3A4 (unknown origin) in presence of NADPH; format: ADME
[22] = target: T2, Cytochrome P450 3A4; assay: Time dependent inhibition of CYP3A4 (unknown origin) in absence of NADPH; format: ADME
[23] = tested on: Rattus norvegicus; assay: Antihypertensive activity in rat spontaneous hypertensive model assessed as induction of diuresis at 3 mg/kg, po qd measured after 3 days; format: functional, organism-based
[24] = species on record: Rattus norvegicus; conditions: in vivo, po, 2 mg/kg
[25] = in vivo; conditions: Wistar Han, rat, po, 2 mg/kg

T2 sequence (P08684 whole entry): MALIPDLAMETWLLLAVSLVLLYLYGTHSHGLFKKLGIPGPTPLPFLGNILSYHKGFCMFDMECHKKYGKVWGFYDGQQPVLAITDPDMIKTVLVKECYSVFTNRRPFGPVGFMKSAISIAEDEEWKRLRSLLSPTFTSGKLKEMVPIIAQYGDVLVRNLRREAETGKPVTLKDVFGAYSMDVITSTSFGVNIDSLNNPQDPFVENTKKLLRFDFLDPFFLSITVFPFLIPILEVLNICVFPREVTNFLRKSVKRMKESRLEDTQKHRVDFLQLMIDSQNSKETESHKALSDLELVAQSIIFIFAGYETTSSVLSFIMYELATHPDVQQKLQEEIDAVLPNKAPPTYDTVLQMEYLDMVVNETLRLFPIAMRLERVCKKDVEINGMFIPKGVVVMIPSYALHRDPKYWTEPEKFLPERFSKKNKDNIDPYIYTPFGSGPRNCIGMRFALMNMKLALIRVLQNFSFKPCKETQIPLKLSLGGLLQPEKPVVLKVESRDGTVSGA
Sodium-dependent serotonin transporter, sequence (P31645 whole entry): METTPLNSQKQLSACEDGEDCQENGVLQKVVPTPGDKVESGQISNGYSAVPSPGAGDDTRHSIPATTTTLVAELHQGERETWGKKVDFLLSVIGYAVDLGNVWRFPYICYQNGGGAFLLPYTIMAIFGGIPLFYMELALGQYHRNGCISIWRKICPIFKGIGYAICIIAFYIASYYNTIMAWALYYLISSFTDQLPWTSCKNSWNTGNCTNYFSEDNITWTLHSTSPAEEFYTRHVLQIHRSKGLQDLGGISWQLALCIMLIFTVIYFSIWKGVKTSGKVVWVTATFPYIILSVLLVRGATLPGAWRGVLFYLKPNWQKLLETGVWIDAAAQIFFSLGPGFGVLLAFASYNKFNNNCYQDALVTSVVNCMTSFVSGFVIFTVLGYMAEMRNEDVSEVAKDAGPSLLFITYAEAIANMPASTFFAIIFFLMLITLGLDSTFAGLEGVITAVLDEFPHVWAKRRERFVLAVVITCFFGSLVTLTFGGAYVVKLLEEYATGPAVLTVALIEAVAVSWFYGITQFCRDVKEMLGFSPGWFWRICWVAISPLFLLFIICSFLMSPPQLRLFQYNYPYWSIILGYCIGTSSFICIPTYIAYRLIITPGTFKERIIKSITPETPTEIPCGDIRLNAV
Sodium channel protein type 5 subunit alpha, sequence (Q14524 whole entry): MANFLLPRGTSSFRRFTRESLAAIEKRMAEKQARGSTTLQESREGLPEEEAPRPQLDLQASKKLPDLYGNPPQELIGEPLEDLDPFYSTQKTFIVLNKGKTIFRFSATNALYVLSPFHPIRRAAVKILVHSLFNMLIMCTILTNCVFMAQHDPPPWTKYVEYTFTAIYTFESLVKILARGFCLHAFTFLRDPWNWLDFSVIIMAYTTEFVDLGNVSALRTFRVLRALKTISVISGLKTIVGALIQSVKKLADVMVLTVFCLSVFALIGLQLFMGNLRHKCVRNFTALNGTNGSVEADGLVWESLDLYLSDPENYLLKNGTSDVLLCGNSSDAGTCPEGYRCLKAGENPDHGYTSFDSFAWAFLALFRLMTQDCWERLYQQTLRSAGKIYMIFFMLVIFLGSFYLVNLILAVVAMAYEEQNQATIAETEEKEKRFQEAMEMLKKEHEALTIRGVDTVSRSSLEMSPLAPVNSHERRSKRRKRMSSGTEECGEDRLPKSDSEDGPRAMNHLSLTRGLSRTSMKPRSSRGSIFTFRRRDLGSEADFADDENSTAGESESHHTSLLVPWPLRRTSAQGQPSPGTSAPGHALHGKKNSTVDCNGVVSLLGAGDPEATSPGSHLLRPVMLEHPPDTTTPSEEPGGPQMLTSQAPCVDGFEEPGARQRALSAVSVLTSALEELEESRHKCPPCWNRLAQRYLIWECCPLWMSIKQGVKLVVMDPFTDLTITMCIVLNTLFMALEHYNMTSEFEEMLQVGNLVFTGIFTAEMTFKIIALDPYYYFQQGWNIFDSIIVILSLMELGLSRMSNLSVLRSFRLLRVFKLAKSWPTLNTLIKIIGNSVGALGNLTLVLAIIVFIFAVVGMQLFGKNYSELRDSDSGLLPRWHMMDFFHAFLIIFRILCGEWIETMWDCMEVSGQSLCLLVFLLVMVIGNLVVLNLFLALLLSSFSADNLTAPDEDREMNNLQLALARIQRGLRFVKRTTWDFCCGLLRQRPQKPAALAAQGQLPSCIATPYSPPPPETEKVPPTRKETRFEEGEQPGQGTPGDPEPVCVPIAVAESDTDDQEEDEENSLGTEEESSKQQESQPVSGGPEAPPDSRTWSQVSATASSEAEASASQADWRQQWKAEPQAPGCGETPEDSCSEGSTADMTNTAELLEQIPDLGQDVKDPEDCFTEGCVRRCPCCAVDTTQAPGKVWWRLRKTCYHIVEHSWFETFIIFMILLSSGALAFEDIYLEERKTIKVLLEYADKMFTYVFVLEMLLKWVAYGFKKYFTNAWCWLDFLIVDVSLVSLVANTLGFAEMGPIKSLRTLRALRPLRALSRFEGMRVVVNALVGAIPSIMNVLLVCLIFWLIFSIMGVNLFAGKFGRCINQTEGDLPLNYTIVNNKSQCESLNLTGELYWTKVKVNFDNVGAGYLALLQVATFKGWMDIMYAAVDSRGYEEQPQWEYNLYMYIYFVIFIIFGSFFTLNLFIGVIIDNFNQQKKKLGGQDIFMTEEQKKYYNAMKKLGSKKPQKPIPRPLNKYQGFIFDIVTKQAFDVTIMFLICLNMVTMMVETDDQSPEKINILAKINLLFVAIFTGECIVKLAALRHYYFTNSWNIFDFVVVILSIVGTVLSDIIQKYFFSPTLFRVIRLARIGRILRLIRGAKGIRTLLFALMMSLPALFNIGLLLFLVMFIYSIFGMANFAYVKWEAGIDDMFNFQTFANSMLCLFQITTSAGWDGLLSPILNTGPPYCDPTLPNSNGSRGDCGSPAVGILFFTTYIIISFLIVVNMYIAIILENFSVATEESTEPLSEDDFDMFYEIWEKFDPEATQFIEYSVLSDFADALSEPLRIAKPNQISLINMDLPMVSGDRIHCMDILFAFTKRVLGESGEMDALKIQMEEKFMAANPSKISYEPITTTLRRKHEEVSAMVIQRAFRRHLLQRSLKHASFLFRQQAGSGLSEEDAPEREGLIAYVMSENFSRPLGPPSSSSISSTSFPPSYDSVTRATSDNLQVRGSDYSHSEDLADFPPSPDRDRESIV

Cc1c([C@@H](O)CN2CCC3(CC2)CCN(c2ccc(=O)n(C)n2)C3=O)ccc2c1COC2=O
Cp(f) [1]: 5.3 µM
IC50 [2]: > 30 µM
clearance [3]: 25 mL/min/kg
Vd [4]: 3.3 L/kg
half-life [5]: 2.8 h
IC50 [6]: 0.017 µM
IC50 [7]: > 50 µM
IC50 [8]: > 50 µM
IC50 [9]: > 30 µM
IC50 [10]: 10.4 µM
fraction unbound [11]: 0.456
IC50 [12]: 0.038 µM
Activity [13]: 9%
Activity [14]: 12%
Activity [15]: Dose-dependent effect
Cp(f) [16]: 13.5 µM
fCmax [17]: 0.12 µM
Activity [18]: inactive
Activity [19]: Active
Vd [20]: 5 L/kg
IC50 [21]: > 50 µM
IC50 [22]: > 50 µM
Activity [23]: Active
AUC/dose [24]: 1.2 µM·kg·h/mg
bioavailability [25]: 78%
